Columns and labels:
[1] = system: monocytes and macrophages that expressed MerTK; details: addition of UNC569; cited from earlier work
melanoma cells = details: cited from earlier work
melanoma = melanoma mouse model, therapeutic doses; cited from earlier work
[2] = system: non-small cell lung cancer (NSCLC) and acute myeloid leukemia (AML) tumor cell lines; details: cited from earlier work
Colon26 tumor cells = test: Colon26 syngeneic colon carcinoma model: tumor volume, time to endpoint, survival; assay type: in vivo, Female BALB/c mice; details: for median time to endpoint (TTE): endpoint 1000 mm^3 or 45 days; for tumor growth delay (TGD) / tumor growth delay (TGD), percent / mice remaining through day 15: alone or with the antibody in the label; for mice remaining through day 15: n=9
Protocol: Female BALB/c mice were injected with 5×10^5 Colon26 tumor cells in 0% Matrigel sc in flank. The cell injection volume was 0.1 mL/mouse. Mice were between 7 to 10 weeks at the start of the experiment. When tumors reached an average size of 80-120 mm^3, treatment was begun. Body weight was measured five times per week for the first two weeks and then twice per week to the end of the experiment. Tumor volume was measured by caliper measurement twice per week to the end of the experiment. […] Any group with a mean body weight loss of greater than 20% or greater than 10% mortality was stopped dosing. The group was not euthanized and recovery was allowed. Within a group with greater than 20% weight loss, individuals hitting the individual body weight loss endpoint were euthanized. The endpoint of the experiment was a tumor volume of 1000 mm^3 or 45 days, whichever endpoint came first. When the endpoint was reached, the mice were euthanized.
UNC2371 was prepared in salt form and the dosing solution was prepared every day. UNC2371 was prepared in deionized water. All doses represent total substance dosed by weight of compound (including salt weight). […] Dosing solution was prepared at 5 mL/kg (0.100 mL/20 g mouse) and volume was adjusted accordingly for body weight. Dosing solutions of anti-CTLA4 9H10 (BioXcell cat# BE0131) and anti-PD1 RMP1-14 (rat Ig—BioXcell cat# BE0146) were prepared in PBS every week, stored at 4° C., and protected from light. Dosing solution was prepared at 10 mL/kg (0.200 mL/20 g mouse) and volume was adjusted accordingly for body weight.
Mice were randomized into twelve different experimental groups. Group 1 received deionized water via oral gavage (p.o.) three times daily for twenty-one days, starting with two doses on Day 1 (tid×21 first day two doses) and PBS i.p. twice weekly for two weeks (biwk×2). Groups 2-4 received UNC2371 via oral gavage (p.o.) three times daily for twenty-one days, starting with two doses on Day 1 (tid×21 first day two doses). Dosing amounts for UNC2371 for Groups 2-4 were 1, 5 and 15 mg/kg, respectively. Group 5 received anti-PD1 mAb at a dosage of 5 mg/kg i.p. biwk×2. Group 6 received anti-CTLA4 mAb at a dosage of 5 mg/kg on Day 1 and at 2.5 mg/kg on Days 4 and 7. Groups 7-9 received UNC2371 (p.o. tid×21, first day two doses) at 1, 5 and 15 mg/kg, respectively, in combination with anti-PD1 (5 mg/kg i.p. biwk×2). Groups 10-12 received UNC2371 (p.o. tid×21, first day two doses) at 1, 5 and 15 mg/kg, respectively, in combination with anti-CTLA4 (5 mg/kg on Day 1 and at 2.5 mg/kg on Days 4 and 7).

[3] = system: Colon26 murine colon carcinoma; test: Flow cytometry of immune cells in tumor and PBMCs, Colon26 model, Day 8; assay type: in vivo, mouse
Protocol: Tumor samples and blood samples were analyzed by flow cytometry to determine the effect of a MerTK inhibitor on immune cells alone or in combination with an immune checkpoint inhibitor in the Colon26 murine colon carcinoma mouse model. In the following example, the MerTK inhibitor UNC2371 was examined in combination with the immune checkpoint inhibitors anti-CTLA4 and anti-PD1. Experiments were performed as described in Example 3 above, except that mice in each group were euthanized at Day 8, and tumor tissue and blood samples were collected. Blood samples were collected by terminal cardiac puncture under isoflurane anesthesia. Blood was processed for peripheral blood monocyte cells (PBMCs; enriches the white cell population). Flow cytometry was conducted to identify specific white cell populations in both the PBMCs as well as the tumor cells. Tumor samples were preserved (single cell suspension) and maintained at −4° C.

[4] = system: Colon26 murine colon carcinoma; test: Immunohistochemistry of Colon26 tumors (CD3, F4/80, survivin); assay type: in vivo, mouse
Protocol: Tumors from 2 to 3 mice per treatment group were formalin fixed and paraffin embedded. The samples were analyzed by immunohistochemistry for several biological markers (data not shown). T cells (cell marker=CD3) were increased in the 1 mg/kg UNC2371 (low dose) monotherapy arm and 1 mg/kg UNC2371/anti-CTLA4 combination treatment arm compared to vehicle. […] Macrophages (cell marker F4/80) were highest in group 6 (anti-CTLA4) and group 10 (UNC2371 1 mg/kg+anti-CTLA4) with similar staining seen in these two groups. […] Tumors were also analyzed for survivin staining.

B16 melanoma = B16 melanoma mouse model with radiation therapy (XRT), secondary tumor; assay type: in vivo
Protocol: MerTK ihibitors were analyzed in combination with immune checkpoint inhibitors in a B16 melanoma mouse model for their effect on secondary tumor growth in mice treated with radiation therapy (XRT). XRT is performed according to the following schematic:
Briefly, XRT (8 Gy) was given on days 9, 10, and 11. UNC2371 was given at a dose of 50 mg/kg, by oral gavage, qd, initiated at Day 8. Anti-PD1 was given at 200 μg IP on days 6, 9, and 12. Eight mice were analyzed in each treatment arm (XRT, MerTKi, anti-PD1, anti-PD1+MerTKi, XRT+MerTKi, XRT+anti-PD1, and XRT+anti-PD1+MerTKi). Tumors were implanted on both flanks, and the secondary tumor was shielded during XRT treatment. The secondary tumor was assessed for impact of abscopal effect.

[5] = system: myeloid-derived suppressor cells (MDSCs); test: mRNA expression in myeloid-derived suppressor cells from B16/F10 tumor-bearing mice; assay type: in vivo, mouse
Protocol: To evaluate the effect of MerTK inhibitors on myeloid-derived suppressor cells (MDSCs), C57BL/6 B16/F10 melanoma cells were implanted into syngeneic mice and tumors are allowed to form. Once tumors reached 5 mm in diameter, mice received either vehicle (0.9% NaCl) or 10, 25 or 50 mg/kg UNC2371 for 5 days. Initial experiments determined the lowest dose capable of altering the immune system. Myeloid-derived suppressor cells (MDSCs) were isolated from the spleens of tumor-bearing mice by fluorescence activated cell sorting using the cell surface markers CD11b^+Ly6G^−Ly6C^high and G-MDSCs by CD11b^+Ly6G^highLy6C^low. MDSCs' suppressive capabilities were assessed by the level of RNA for M2 capabilities.

AML = details: cited from earlier work

CCCCNc1ncc2c(-c3ccc(F)cc3)nn(CC3CCC(N)CC3)c2n1 (stereo not drawn) [UNC569]
production of inflammatory cytokines [1]: restored

CCCCNc1ncc2c(-c3ccc(S(=O)(=O)N4CCOCC4)cc3)nn(C3CCC(O)CC3)c2n1 (stereo not drawn) [UNC1062]
activation of MERTK-mediated downstream signaling (melanoma cells): reduced
apoptosis in culture (melanoma cells): induced
colony formation in soft agar (melanoma cells): reduced
invasion of melanoma cells (melanoma cells): inhibited

CCCCNc1ncc2c(-c3ccc(CN4CCN(C)CC4)cc3)cn(C3CCC(O)CC3)c2n1 (stereo not drawn) [UNC2025A]
survival (melanoma): survival advantage
colony formation [2]: can inhibit colony formation

CN1CCN(Cc2ccc(-c3cn(C4CCC(O)CC4)c4nc(NCCC5CC5)ncc34)cc2)CC1 (stereo not drawn) [UNC2371]
single agent efficacy (Colon26 tumor cells; anti-CTLA4, anti-PD1 and low dose UNC2371 as single agents, FIGS. 16 to 18): failed to demonstrate single agent efficacy
median time to endpoint (TTE) (Colon26 tumor cells; high dose UNC2371 15 mg/kg TID p.o. x21, alone or with the antibody in the label): 20.7 days
tumor growth delay (TGD) (Colon26 tumor cells; high dose UNC2371 15 mg/kg TID): 6.9 days
tumor growth delay (TGD), percent (Colon26 tumor cells; high dose UNC2371 15 mg/kg TID): 50%
mice remaining through day 15 (Colon26 tumor cells; high dose UNC2371 15 mg/kg TID): 8/9
median time to endpoint (TTE) (Colon26 tumor cells; low dose UNC2371 1 mg/kg TID p.o. x21, alone or with the antibody in the label): 14.0 days
tumor growth delay (TGD) (Colon26 tumor cells; low dose UNC2371 1 mg/kg TID): 0.2 days
tumor growth delay (TGD), percent (Colon26 tumor cells; low dose UNC2371 1 mg/kg TID): 1%
mice remaining through day 15 (Colon26 tumor cells; low dose UNC2371 1 mg/kg TID): 3/9
median time to endpoint (TTE) (Colon26 tumor cells; mid dose UNC2371 5 mg/kg TID p.o. x21, alone or with the antibody in the label): 16.7 days
tumor growth delay (TGD) (Colon26 tumor cells; mid dose UNC2371 5 mg/kg TID): 2.9 days
tumor growth delay (TGD), percent (Colon26 tumor cells; mid dose UNC2371 5 mg/kg TID): 21%
mice remaining through day 15 (Colon26 tumor cells; mid dose UNC2371 5 mg/kg TID): 6/9
CD8+ cells in the tumor ([3]; Day 8, FIG. 19, combination: low dose or medium dose UNC2371): increase
Natural Killer (NK) cells in the tumor ([3]; Day 8, FIG. 20): increase
T cell (CD3 marker) penetration into the core of the tumor [4]: notable increase
T cells (cell marker CD3) in tumor compared to vehicle ([4]; 1 mg/kg UNC2371 (low dose)): increased
survivin staining ([4]; low dose 1 mg/kg UNC2371): markedly decreased staining
secondary tumor volume compared with XRT alone (B16 melanoma; UNC2371 50 mg/kg oral gavage qd from Day 8, anti-PD1 200 μg IP days 6, 9, 12, FIG. 22A): more effective than XRT alone
tumor derived myeloid-derived suppressor cells (MDSCs) (B16 melanoma; XRT+UNC2371 vs XRT, FIG. 22C): decrease
abscopal effect on the secondary tumor (B16 melanoma; with XRT 8 Gy days 9, 10, 11, UNC2371 50 mg/kg qd, anti-PD1 200 μg IP, FIG. 22B): enhanced the abscopal effect
arginase mRNA expression ([5]; 25 mg/kg UNC2371 for 5 days vs vehicle control): decrease
iNOS (inducible nitric oxide synthase) mRNA expression ([5]; 10, 25, or 50 mg/kg UNC2371 for 5 days vs vehicle control): decrease
IDO (indoleamine 2,3-dioxygenase) mRNA expression ([5]; 10 or 25 mg/kg UNC2371 for 5 days vs vehicle control): decrease

CCCCNc1ncc2c(-c3ccc(S(=O)(=O)N4CCOCC4)cc3)cn(C3CCC(O)CC3)c2n1 (stereo not drawn) [UNC 1666]
myeloid survival in AML (AML): decreases
oncogenic signaling in AML (AML): decreases

From US20180296561A1, “The Methods For Treatment Of Tumors” (The University of North Carolina at Chapel Hill, priority 2015, published 2018)
